Where “and” joins values, the source holds several entries; their conditions need not be identical. Equal entries are not always repeated. Entries after “also recorded” stand apart in the source; their conditions may differ.

Data on four compounds can be found in patent US20060247156A1, “Use of neuropeptides for ligament, cartilage, and bone healing” (priority 2004, published 2006).

Series [1] deals with ruptured MCL of a surgical sympathectomy (SS) rat. Briefly: Local neuropeptide delivery to ruptured MCL of surgical sympathectomy (SS) rats: mechanical testing, histomorphology. It counts as in vivo. An excerpt: Surgical Procedure: Thirteen female Wistar rats (306 g to 339 g) were divided into two groups: surgical sympathectomy (SS) or sham control. All rats were anesthetized with isofluorane as described in Example 1. A transperitoneal approach was used. The lower abdomen was shaved and prepared for surgery. A skin incision approximately 25 mm long was made. Fascia and abdominal muscle were incised. Abdominal organs were displaced. With the aid of a dissecting microscope, fascia surrounding the deep muscle tissue was separated (with minimal disruption to the muscle tissue) to expose the post-ganglionic sympathetic nerves. The L1-4 nerves were isolated and transected (with removal of a 5 mm segment of the nerves) in the surgical sympathectomy group only. In both groups, the deep muscle tissue was returned to its initial position and abdominal organs were replaced. Abdominal muscles and skin were closed in two layers with a 3-0 or 4-0 continuous dexon suture. Rats from each group (n=4 SS; n=3 controls) then underwent a complete surgical rupture of the MCL to one knee. The contra-lateral knee underwent sham surgery. […] Two weeks post-surgery, rats were sacrificed using an overdose of pentobarbitone (150 mg/kg).
Local delivery of NPs and NP inhibitors is important to identify the specific roles of individual NPs on healing tissues. An animal model for the local delivery of NPs has been developed and is presented in this Example. Briefly, NP infused mini-osmotic pumps were implanted subcutaneously into the back of rats. A small catheter running from the pump to an intramuscular space above the MCL was secured to the rat.
To test whether autonomic NPs improve healing in SS-ruptured MCLs, three female Wistar rats (193 g to 204 g) were given VIP locally to the MCL. Vasoactive intestinal peptide (75 pg/μl) was infused into a mini-osmotic pump and was delivered to a ruptured MCL of a surgical sympathectomy (SS) rat (see surgical procedure above). Within minutes of surgical intervention, all rats recovered and had normal movement and behavior (grooming, feeding, etc.). […] The results are presented graphically in FIG. 6.
Animal Model and Surgery: Thirty-seven female Wistar rats (199-298 g) were divided into five groups. […] Rats that were designated to receive SP or CGRP underwent bilateral femoral nerve transection (see previous examples). Rats that were designated to receive NPY, VIP, or a combination of NPY and VIP underwent bilateral surgical sympathectomy. Following surgical nerve transection, each rat also underwent bilateral MCL rupture. Neuropeptides were then delivered ruptured MCLs unilaterally. Neuropeptide infused mini-osmotic pumps (Alzet Corp.) were implanted subcutaneously into the back of each rat. A small catheter running from the pump was run to an intramuscular space above the MCL and was secured. To ensure that neuropeptides are delivered directly to the MCL, rhodamine labeled SP was delivered via a catheter to the MCL (n=2 rats).
Within minutes of surgical intervention, all rats recovered and had normal movement and behavior (grooming, feeding, etc.). To test whether autonomic NPs improve healing in SS ruptured MCLs, seven rats were given VIP, seven rats were given NPY, and seven rats were given a combination of VIP and NPY. […]
Mechanical Testing: Mechanical testing was performed as described in the preceding examples. Briefly, animal hind limbs from all groups (n=4 for all groups) were disarticulated at the hip joint and stored at −80° C. until testing. On the day of testing, MCLs including intact femoral and tibial bone sections were excised for ex vivo testing. Ligament thickness and width was measured optically, and MCL area was estimated with elliptical geometry. For strain measurements, optical markers were placed onto the ligament tissue near the insertion sites. […]

Series [2] deals with bovine articular chondrocytes. The experiment in a line: Bovine chondrocytes glycosaminoglycan assay (DMMB). It is filed as cell-based. The settings on record: NPY 50 ng/ml; Day 3 of treatment; individual wells. As to the method:
(§1) Cartilage chunks were then digested at 37° C. in DMEM containing 0.05% hyaluronidase for 30 minutes, followed by 0.05% collagenase digestion overnight. The digests were filtered through 40-micron nylon mesh and centrifuged at 600×g for 20 minutes. The cell pellets were then resuspended in DMEM and counted using a hemacytometer.
(§2) Cells were plated at 1×10^5 cells/well in 12-well plates (n=9) for proteoglycan assays and at 2×10^4 cells/well in 96-well plates (n=16) for proliferation assays. The culture volumes were 1 ml/well in 12-well plates and 100 μl/well in 96-well plates.
(§3) The plates were incubated at 37° C. in a humidified CO2 incubator for 3 days to allow the cells to recover from the harvesting procedure.
(§4) On Day 3 of treatment, 20 μl of CellTiter 96® AQueous One Solution Cell Proliferation Assay (Promega Corporation, Madison, Wis.) was added to each well of the 96-well cultures for 60 minutes, and cells in the 12-well plates were digested with 0.125 units of papain/well overnight. After the 60-minute incubation, the absorbance of the color generated by the cells in the 96-well plates was measured at wavelength 490 nm.
Following papain digestion of the cultures in 12-well plates, the amount of glycosaminoglycan (representative of proteoglycans) in each well was measured using the dimethylmethylene blue (DMMB) dye-binding assay. The results were statistically analyzed and plotted.

For series [3], the system named is bovine articular chondrocytes. The experiment in a line: Bovine chondrocytes proliferation assay (CellTiter 96 AQueous One). It counts as cell-based. The settings on record: CGRP 100 pg/ml, NPY 50 ng/ml, SP 500 pg/ml, VIP 1 ng/ml. As to the method: as §1, §2, §3, §4
Series [4] deals with healing MCL. Briefly: Local neuropeptide delivery to normally innervated healing MCL: mechanical testing, histomorphology. It is filed as in vivo, rat. As to the method: Animal Model and Surgery: Forty female Wistar rats (200-250 g) were divided into five groups.
All rats underwent bilateral MCL rupture. Neuropeptides were then delivered ruptured MCLs unilaterally. Neuropeptide infused mini-osmotic pumps (Alzet Corp.) were implanted subcutaneously into the back of each rat. A small catheter running from the pump was run to an intramuscular space above the MCL and was secured.
(§5) Mechanical Testing: Mechanical testing was performed as described in Chapter 2. Briefly, animal hind limbs from all groups (n=5 for all groups) were disarticulated at the hip joint and stored at −80° C. until testing. On the day of testing, MCLs including intact femoral and tibial bone sections were excised for ex vivo testing. Ligament thickness and width was measured optically, and MCL area was estimated with elliptical geometry. For strain measurements, optical markers were placed onto the ligament tissue near the insertion sites. A small preload of 0.1N was applied to the ligaments in order to obtain a uniform starting point. The ligaments were then preconditioned to 1% strain for 10 cycles. After preconditioning, ligaments were pulled to failure at a rate of 10% per second.
Tissue displacement was obtained using video dimensional analysis using equations (1) and (2) supra. The mechanical properties that were examined in this study were maximum force, ultimate stress, strain at failure, elastic modulus, and area. Statistical analysis was performed using paired ttests to compare each treated MCL to its contralateral control (alpha=0.05).
(§6) Ligaments were immediately fixed in formalin fixative for three days at room temperature. Specimens were embedded in paraffin, sectioned (6 μm), mounted on slides, and stained with hematoxylin and eosin (H&E).

For series [5], the system named is Bovine nucleus pulposus cells. Briefly: Bovine nucleus pulposus (intervertebral disc) cell proliferation. It counts as cell-based. Particulars: CGRP 10 ng/ml, NPY (mcg/ml, SP 5 mcg/ml); day 1, day 2, day 3. As to the method: Bovine calf spines and femoral condyles were obtained from a slaughterhouse and freshly transported to the laboratory. Nucleus pulposus tissue was carefully dissected, avoiding annular and endplate cartilage tissues, from each disc. Articular cartilage from femoral condyles was dissected in the same manner. […] Cells were harvested by overnight digestion with hyaluronidase and collagenase, followed by filtration. Cells were plated at a density of 1×10^5 cells/ml and incubated at 37° C. in 5% CO2 and 95% air in the presence of each neuropeptide or media only (control). At various time points in growth, cells were collected for proliferation and glycosaminoglycan (GAG) production assays. Varying concentrations of NPs were examined.
Well established colorimetric and luminescent assays (CellTiter 96® AQueous Non-radioactive Cell Proliferation and CellTiter-Glo® Luminescent Cell Viability Assays, Promega, Madison, Wis.) were used to quantify the effect of each NP on cell proliferation. In addition, corresponding cell cultures during growth were digested with papain to release glycosaminoglycans (GAGs). Dimethyl methylene blue (DMMB) colorimetric assays were used to quantify the amount of GAGs in each culture.
Multiple samples for test and control groups were performed simultaneously. Statistical analyses using one way analysis of variance (ANOVA) with large degrees of freedom (n=12 for GAG assays; n=24 for proliferation assays) were performed to establish the significance of differences between test groups and control groups for each day of growth in culture.
The effect of neuropeptides on intervertebral disc cell proliferation was examined in order to elucidate further the pathophysiology of degenerative disc disease. Bovine nucleus pulposus cells were incubated with the same neuropeptides.

Series [6] has as its system MCL. Particulars: cited from earlier work.
The subject of series [7] is MCL neuropeptide concentration (SP, CGRP, NPY, VIP). Briefly: Neuropeptides in MCL after capsaicin (RIA, immunofluorescence). It is filed as in vivo, rat. As to the method: Injections were made into a site between the scapulae. […] Into Group 2 (n=6 animals) and Group 4 (n=9 animals), a similar volume of sterile saline was injected via the same method. All other medications were given as in the treated groups. […] Contralateral legs were used as sham controls.
Neuropeptide Radioimmunoassay: Four MCLs from all groups were used for quantification of neuropeptide concentrations via RIA. MCLs were homogenized using a mortar and pestle.
Each ligament was then incubated in two […] appropriately tagged (AMCA or Rhodamine; Chemicon, Temecula, Calif.) secondary antibodies.

For series [8], the system named is MCL. Briefly: MCL organ culture with capsaicin, mechanical testing. Details: species or system rat.
For series [9], the system named is intact and healing MCLs. Briefly: Intact and healing MCL after in vivo capsaicin: mechanical testing, healing, histomorphology. The arrangement: species or system rat. As to the method: In Group 2, control rats (n=6) were injected with an equal volume of 0.9% saline. […] These rats were also divided into two groups. […] After 3 days of treatment, both groups underwent a surgical rupture of one MCL. Contralateral MCLs were used as sham controls. All rats were maintained in their normal cage environment for 10 days. Then, they were sacrificed as noted above. Femur-MCL-tibia (FMT) complexes were then harvested and tested as above.
Injections were made into a site between the scapulae. […] Bupivicaine was also administered subcutaneously at the site of the capsaicin injection. […] Into Group 2 (n=6 animals) and Group 4 (n=9 animals), a similar volume of sterile saline was injected via the same method. All other medications were given as in the treated groups. There were no signs of infection, discomfort, or unusual behavior in the treated rats. […] Contralateral legs were used as sham controls.
as §5, with “the previous examples.” for “Chapter 2.”, “(n=4 Group 1; n=4 Group 2; n=4 Group 3; n=4 Group 4)” for “(n=5 for all groups)”, “˜10%” for “10%”, “second. Tissue displacement was obtained using video dimensional analysis using equations (1) and (2) infra. The mechanical properties that were examined in this study were maximum force, ultimate stress, strain at failure, elastic modulus, and area. Statistical analysis was performed using an unpaired t-test (p=0.05) to analyze differences between the control and treatment group.” for “second.”
as §6

Setting [10] is: Example 7: normally innervated rats, bilateral MCL rupture, mini-osmotic pump (SP 75, CGRP 10, NPY 65, VIP 100 pg/100 μl), two weeks of healing.
[11] abbreviates: Group 3: ruptured MCL, capsaicin 50 mg/kg/day for three days, two weeks of healing.
Setting [12] is: second study, Group 3: capsaicin 50 mg/kg/day x3 days, ruptured MCL, healing.

neuropeptide Y [NPY]: the failure force in series [1] (Example 6: SS rats, bilateral MCL rupture, mini-osmotic pump (NPY 65 pg/100 μl; VIP 100 pg/100 μl; or both), two weeks of healing) was 12.2±0.9 N; in series [4] (setting [10]), 7.7±1.1 N. The “histomorphology (H&E) of healing MCL” value in series [1] (SS rats, VIP or NPY, two weeks) is “more aligned”; in series [4] (Example 7, two weeks of healing), “less of an effect on tissue alignment”. Besides, in series [1] (neuropathic ruptured MCL, two weeks of healing), the “healing response of MCLs relative to intact controls” value is reported as 70%. Also, the “Glycosaminoglycan Assay” value in series [2] is 7.783 μg/dish and 9.327 μg/dish and 6.2383 μg/dish and 8.055 μg/dish and 7.964 μg/dish and 5.148 μg/dish and 5.784 μg/dish and 7.874 μg/dish and 8.328 μg/dish. The “proliferation of articular chondrocytes compared to controls (in words)” value in series [3] was “stimulate proliferation”. Besides, the ultimate stress in series [4] (setting [10]) is 5.6±2.2 MPa. For the same compound, the “disc cell proliferation compared to controls” value in series [5] is reported as “stimulate disc cell proliferation”.

insulin-like growth factor-1: in [6] (Provenzano et al., following 30 days of delivery), the “healed strength relative to intact ligament” value is on record as 66%.

Turning to platelet-derived growth factor [PDGF], the “healed MCL strength relative to intact ligament strength” value in series [6] (Woo et al., after 6 weeks of healing) is 50%.

Turning to `COc1cc(CNC(=O)CCCC/C=C/C(C)C)ccc1O` [capsaicin], the “CGRP concentration in MCL (RIA)” value in [7] (Group 1: intact MCL, capsaicin 50 mg/kg/day s.c. for three days, 10 days after last injection) is reported as 0.04 pmol/g. In series [7] (setting [11]), the “CGRP concentration in MCL (RIA)” value came out at 0.042 pmol/g, the “NPY concentration in MCL (RIA)” value is reported as 3.09 pmol/g, the “SP concentration in MCL (RIA)” value was 0.09 pmol/g and the “VIP concentration in MCL (RIA)” value came to 1.07 pmol/g. Besides, the ultimate stress in series [8] (organ culture 10 days with capsaicin in media) is 66.0±4.7 MPa. For the same compound, the ultimate force entry in series [8] (organ culture with capsaicin-supplemented media) is reported as “no changes”. In [9] (capsaicin treated, two weeks of healing), the “histomorphology (H&E) of healing MCL” value is “hypercellular and disorganized”. The “healing of MCL and skin wounds (in words)” value in series [9] (capsaicin-treated rats with MCL rupture) was “one MCL failed to heal; also recorded: healed poorly”. The “ultimate stress of the ruptured ligament” value in [9] (first study: capsaicin 50 mg/kg, MCL rupture after 3 days of treatment, n=3) was found to be 4.6 MPa. Also, the “ultimate stress of intact MCLs” value in [9] (first study: capsaicin 50 mg/kg, intact MCL, 10 days) was “substantially reduced”. The “abnormalities in movement, body weight, or behavior” value in series [9] (following initial recovery from capsaicin injection) was “No abnormalities”. Also, in series [9] (second study, Group 1 vs Group 2, intact MCL), the “failure force, ultimate stress, failure strain, area, and elastic modulus of intact MCL” value is “not significantly changed”. Besides, in series [9] (setting [12]), the failure force stood at 4.5±2.7 N and the ultimate stress is reported as 2.7±1.9 MPa.
